# Data as given in patent US8828992B2, “Substituted azole derivatives, pharmaceutical composition containing the derivatives, and method for treating Parkinson's disease using the same” (priority 2009, dated 2014).
# Biological target: T1, Monoamineoxidase B type human-derived enzyme (Homo sapiens, UniProt P27338)
# T1 sequence (P27338 1-520): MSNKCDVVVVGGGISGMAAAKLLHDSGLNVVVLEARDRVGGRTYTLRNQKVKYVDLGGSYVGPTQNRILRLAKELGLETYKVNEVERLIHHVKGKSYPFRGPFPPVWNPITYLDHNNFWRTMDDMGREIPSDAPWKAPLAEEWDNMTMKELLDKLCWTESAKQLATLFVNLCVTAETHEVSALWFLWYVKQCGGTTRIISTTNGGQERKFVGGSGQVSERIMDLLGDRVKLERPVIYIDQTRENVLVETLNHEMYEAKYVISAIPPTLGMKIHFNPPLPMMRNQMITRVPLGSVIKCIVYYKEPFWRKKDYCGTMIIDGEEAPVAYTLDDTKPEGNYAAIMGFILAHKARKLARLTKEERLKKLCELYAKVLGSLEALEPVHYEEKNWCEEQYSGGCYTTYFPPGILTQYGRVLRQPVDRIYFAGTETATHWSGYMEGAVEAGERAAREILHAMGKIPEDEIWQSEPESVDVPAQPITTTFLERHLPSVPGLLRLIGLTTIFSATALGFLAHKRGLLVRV
# Assay: Inhibitory effects on the activity of MAO-B (Amplex Red fluorescence, benzylamine substrate)
# Format: biochemical
# Conditions: treatment concentration 10 nM; read-out: Inhibitory effects (%) on the activity of MAO-B
# Experimental: Monoamineoxidase A or B type human-derived enzyme (5 mg/ml) was each diluted with 0.05 M sodium phosphate buffer (pH 7.4) to yield a dilution of 1:200, and then 100 μl of an enzyme buffer containing 2 μl of a compound 1 solution at the corresponding concentration was placed in a test plate (flat-bottom) and incubated for 30 minutes.
# 100 μl of a working buffer containing 400 μM of Amplex Red reagent, 2 U/ml horseradish peroxidase, and 2 mM substrate (tyramine for MAO-A and benzylamine for MAO-B) in 0.05 M sodium phosphate buffer (pH 7.4) was mixed with a pre-incubated enzyme buffer at 1:1 and measured using fluorescence (EX: 563 nm & EM: 587 nm) for 30 minutes.
row,inhibition at 0.01 µM,Structure (SMILES)
1,63.4%,"COc1c(C)cc(COc2ccc(-c3cc(COC(N)=O)on3)cc2)nc1C [Example 68, Carbamic acid 3-[4-(5-methoxy-4,6-dimethyl-pyridin-2-ylmethoxy)-phenyl]-isoxazol-5-ylmethyl ester]"
2,27.1%,"NC(=O)OCc1cc(-c2ccc(OCc3ccc4ccccc4n3)cc2)no1 [Example 70, Carbamic acid 3-[4-(quinolin-2-ylmethoxy)-phenyl]-isoxazol-5-ylmethyl ester]"
3,58.1%,"COC(=O)c1ccc(COc2ccc(-c3cc(COC(N)=O)on3)cc2)o1 [Example 73, 5-[4-(5-carbamoyloxymethyl-isoxazol-3-yl)-phenoxymethyl]-furan-2-carboxylic acid methyl ester]"
4,87%,"NC(=O)OCc1cc(-c2ccc(NCc3ccc(F)cc3)cc2)no1 [Example 76, Carbamic acid 3-[4-(4-fluoro-benzylamino)-phenyl]-isoxazol-5-ylmethyl ester]"
5,77.1%,"NC(=O)OCc1cc(-c2ccc(NCc3cccc(F)c3)cc2)no1 [Example 77, Carbamic acid 3-[4-(3-fluoro-benzylamino)-phenyl]-isoxazol-5-ylmethyl ester]"
6,84.7%,"NC(=O)OCc1cc(-c2ccc(NCc3ccccc3F)cc2)no1 [Example 78, Carbamic acid 3-[4-(2-fluoro-benzylamino)-phenyl]-isoxazol-5-ylmethyl ester]"
7,74.5%,"NC(=O)OCc1cc(-c2ccc(NCc3cccc(F)c3F)cc2)no1 [Example 80, Carbamic acid 3-[4-(2,3-difluoro-benzylamino)-phenyl]-isoxazol-5-ylmethyl ester]"
8,56.5%,"NC(=O)OCc1cc(-c2ccc(NCc3cc(F)cc(F)c3)cc2)no1 [Example 82, Carbamic acid 3-[4-(3,5-difluoro-benzylamino)-phenyl]-isoxazol-5-ylmethyl ester]"
9,54.9%,"NC(=O)OCc1cc(-c2ccc(NCc3cc(F)ccc3F)cc2)no1 [Example 83, Carbamic acid 3-[4-(2,5-difluoro-benzylamino)-phenyl]-isoxazol-5-ylmethyl ester]"
10,50.1%,"NC(=O)OCc1cc(-c2ccc(NCc3ccc(Cl)cc3)cc2)no1 [Example 85, Carbamic acid 3-[4-(4-chloro-benzylamino)-phenyl]-isoxazol-5-ylmethyl ester]"
11,83.3%,"NC(=O)OCc1cc(-c2ccc(NCc3ccccc3Cl)cc2)no1 [Example 86, Carbamic acid 3-[4-(2-chloro-benzylamino)-phenyl]-isoxazol-5-ylmethyl ester]"
12,78.6%,"NC(=O)OCc1cc(-c2ccc(NCc3cccc(Cl)c3)cc2)no1 [Example 87, Carbamic acid 3-[4-(3-chloro-benzylamino)-phenyl]-isoxazol-5-ylmethyl ester]"
13,60%,"NC(=O)OCc1cc(-c2ccc(NCc3cccc(Cl)c3Cl)cc2)no1 [Example 88, carbamic acid 3-[4-(2,3-dichloro-benzylamino)-phenyl]-isoxazol-5-ylmethyl ester]"
14,54.7%,"NC(=O)OCc1cc(-c2ccc(NCc3ccc(Cl)cc3Cl)cc2)no1 [Example 89, carbamic acid 3-[4-(2,4-dichloro-benzylamino)-phenyl]-isoxazol-5-ylmethyl ester]"
15,20.3%,"NC(=O)OCc1cc(-c2ccc(NCc3cc(Cl)ccc3Cl)cc2)no1 [Example 90, carbamic acid 3-[4-(2,5-dichloro-benzylamino)-phenyl]-isoxazol-5-ylmethyl ester]"
16,73.1%,"NC(=O)OCc1cc(-c2ccc(NCc3c(Cl)cccc3Cl)cc2)no1 [Example 91, carbamic acid 3-[4-(2,6-dichloro-benzylamino)-phenyl]-isoxazol-5-ylmethyl ester]"
17,75.2%,"NC(=O)OCc1cc(-c2ccc(NCc3ccc(Cl)c(Cl)c3)cc2)no1 [Example 92, carbamic acid 3-[4-(3,4-dichloro-benzylamino)-phenyl]-isoxazol-5-ylmethyl ester]"
